Target: T1, estrogen receptor-α (ER) (Homo sapiens, UniProt P03372)
T1 construct: expression plasmids for full-length human ERα; expressed in transfected cells; host or cells: LNCaP
T1 sequence (P03372 1-595): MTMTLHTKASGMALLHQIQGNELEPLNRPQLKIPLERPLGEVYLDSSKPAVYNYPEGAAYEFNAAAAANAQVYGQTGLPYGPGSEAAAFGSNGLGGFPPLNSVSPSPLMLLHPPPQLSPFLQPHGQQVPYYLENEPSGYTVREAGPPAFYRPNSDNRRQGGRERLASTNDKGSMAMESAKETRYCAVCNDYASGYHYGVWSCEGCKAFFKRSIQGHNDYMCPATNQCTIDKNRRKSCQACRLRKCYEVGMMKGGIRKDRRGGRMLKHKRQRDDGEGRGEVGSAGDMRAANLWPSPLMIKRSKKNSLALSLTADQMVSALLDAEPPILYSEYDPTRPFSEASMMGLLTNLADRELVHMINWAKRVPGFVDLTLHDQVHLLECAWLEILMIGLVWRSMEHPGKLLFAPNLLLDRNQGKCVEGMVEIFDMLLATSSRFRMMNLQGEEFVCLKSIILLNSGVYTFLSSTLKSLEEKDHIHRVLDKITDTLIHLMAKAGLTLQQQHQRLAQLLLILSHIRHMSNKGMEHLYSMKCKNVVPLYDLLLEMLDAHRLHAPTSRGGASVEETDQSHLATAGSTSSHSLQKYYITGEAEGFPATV
Assay: ERE-luciferase reporter assay in LNCaP cells cotransfected with full-length human ERα
Assay type: cell-based
Conditions: 1.9 μM 8d, 10 nM E2 (estradiol), 24 h, LNCaP cells (FIG. 2D)
Protocol: To assess specificity for the AR, parallel experiments were performed in LNCaP cells with endogenous AR and ectopic expression of other closely related human hormone receptors such as the progesterone receptor-beta (PRβ), glucocorticoid receptor (GR) and estrogen receptor-α (ER).
For 8d, 1 μg/mL=1.9 μM in FIGS. 2A-2D.

- ERα activity (ERE-luciferase): not inhibited
SMILES: CC(C)(c1ccc(OC[C@H](O)CO)cc1)c1ccc(OC[C@H](O)CCl)c(I)c1 [Compound 8d, (R)-3-(4-(2-(4-((S)-3-chloro-2-hydroxypropoxy)-3-iodophenyl)propan-2-yl)phenoxy)propane-1,2-diol]

— patent US9375496B2, “Halogenated compounds for cancer imaging and treatment and methods for their use” (The University of British Columbia, priority 2013, dated 2016)
